Laboratory results: patent US11510964B2, “Macrocyclic peptides to decrease c-Myc protein levels and reduce cancer cell growth” (University of Kansas, priority 2017, dated 2022)
“Also recorded” adds a separate entry of the source. Non-standard residues stand in square brackets, D forms with d. Residues, ends and D or L forms follow the SMILES beside them.

Key:
BPH-1 cells = experiment: Cell proliferation assay (WST-1); format: cell-based
Experimental: (§1) Human prostate cancer PC-3 cells were cultured and maintained in EMEM (ATCC), non-prostate HEK (human embryonic kidney) cells were cultured in DMEM, human prostate cancer DU145, LNCaP, 22Rv1 cells were cultured in RPMI 1640 (ATCC), and normal BPH-1 prostate cells and prostate cancer C4-2 cell line were cultured in RPMI 1640 (ATCC), all containing 10% fetal bovine serum (Atlanta Biologicals) and 1% penicillin/streptomycin (Invitrogen). Cells were grown at 37° C. in humidified air with 5% CO2 and passaged every fourth to fifth day following trypsinization with trypsin/EDTA (Invitrogen).^16
(§2) PC-3, LNCaP, DU 145, 22Rv1, C4-2, BPH-1, and HEK cells were grown to a density of 2000 cells/well in 96 well plates and treated with [D-Trp]CJ-15,208 or other peptides for 24-72 h in duplicate. Media containing [D-Trp]CJ-15,208 was changed every 24 h. The proliferation of treated cells was determined using the cell proliferation reagent WST-1 (Roche) per the manufacturer's instructions and compared to […] control cells in 1% DMSO in media. After treatment with compound 10 μL of the reagent was added to the well in 100 μL culture media, and the cells incubated at 37° C. for 30 min. The absorbance of the media in each well was measured at […] using a plate reader (BioTek). The percentage cell proliferation was normalized to vehicle treated control cells calculated as: (mean absorbance of sample/mean absorbance of control cells)×100.^38
(§3) Each experiment was performed in triplicate unless otherwise stated in the figure legend. GraphPad Prism 5 was used to determine IC50 values. Data represent the mean value+/−SEM. Compound vs. vehicle treated cells in the cell cycle phase and apoptosis experiments (FIGS. 5-8) were compared using the student's t-test, with a two-tailed, unpaired method, using the Prism software. The effects of compound vs. vehicle treatment on protein levels (FIG. 10) were evaluated by one-way ANOVA with Dunnett's test for multiple comparisons.

C4-2 cells = experiment: Cell proliferation assay (WST-1); format: cell-based
Experimental: as §1, §2, §3

[1] = tested on: c-Myc protein levels in PC-3 cells; experiment: Western blot analysis of cellular c-Myc protein levels; format: cell-based, human
Experimental: Cells were seeded in 6 well plates at a density of 1×10^5 cells/well and grown to 75% confluence. Cells were treated with [D-Trp]CJ-15,208 at the indicated concentrations. Cells were then harvested as described above, and the cell pellets lysed in RIPA buffer consisting of 10 mM Tris HCl, pH 8.0, 150 mM NaCl, 1 mM EDTA, 1% Triton-X-100, 0.1% SDS, 1% sodium deoxycholate, and a protease inhibitor cocktail #P8340 (Sigma). Cell lysates were centrifuged at 13×1000 rpm for 15 min and the supernatants collected. The total protein concentration was measured in cell lysates using the standard Bradford assay. SDS gel electrophoresis was performed using 4-20% polyacrylamide gel (BioRad). Western blot analysis was performed using the following antibodies: i) c-Myc #5605 (rabbit monoclonal, 1:2000 dilution, (Cell Signaling Technologies)); actin #A2228 (mouse monoclonal, 1:5000 dilution (Sigma)), PP2A #610555 (mouse monoclonal 1:5000 dilution, BD Biosciences), p-PP2A #1155-1 (rabbit polyclonal, 1:5000 dilution (Epitomics)), Erk #9107 (mouse monoclonal, 1:2000 dilution (Cell Signaling Technologies) and p-Erk #4376 (rabbit monoclonal, 1:2000 (Cell Signaling Technologies)); Akt #2920 (mouse monoclonal, 1:2000 dilution (Cell Signaling Technologies)), p-Akt #4056 (rabbit monoclonal, 1:2000 (Cell Signaling Technologies)). The secondary antibodies, goat-anti-mouse #116-035-003 and goat-anti-rabbit #111-035-003, were obtained from Jackson ImmunoResearch Laboratory. Signal densities of the protein bands were determined using ImageJ software (NIH) and normalized to the internal loading control (actin).

PC-3 cells = experiment: Cell cycle analysis (PI, flow cytometry); format: cell-based, human; conditions: PC-3, 10 μM
Experimental: PC-3 cells were grown in T-75 flask to 75% confluency and treated with either 10 μM [D-Trp]CJ-15,208 in 0.5% DMSO or 0.5% DMSO as a vehicle control for 24-48 h. After treatment, the cell media was collected, the cells were washed with ice cold PBS twice, and the washes collected with the media. The cells were then trypsinized and the combined cells and media centrifuged at 1200 rpm for 5 min. The cell pellet was resuspended in PBS, the cells counted using a hematocytometer, and 1 million cells resuspended in 300 μL PBS. The cells were fixed with 700 μL ice cold 100% ethanol overnight and then centrifuged at 1200 rpm. Following removal of the ethanol, the cells were resuspended in 500 μL PBS containing 100 μg/mL RNAse and incubated for 30 min at room temperature. Propidium iodide (PI) solution (Sigma, 100 μg/mL) was added, and the solution then incubated for 30 min at room temperature in the dark. Cell cycle analysis^38 was performed using a Beckman-Coulter MoFlo XDP flow cytometer, and the cell cycle phase distribution was analyzed using FlowJo v10.1.
as §3

Erk in PC-3 cells = experiment: Western blot of p-Erk/total Erk protein levels; format: cell-based, human
Experimental: (§4) Cells were seeded in 6 well plates at a density of 1×10^5 cells/well and grown to 75% confluence. Cells were treated with [D-Trp]CJ-15,208 at the indicated concentrations. Cells were then harvested as described above, and the cell pellets lysed in RIPA buffer consisting of 10 mM Tris HCl, pH 8.0, 150 mM NaCl, 1 mM EDTA, 1% Triton-X-100, 0.1% SDS, 1% sodium deoxycholate, and a protease inhibitor cocktail #P8340 (Sigma). Cell lysates were centrifuged at 13×1000 rpm for 15 min and the supernatants collected. The total protein concentration was measured in cell lysates using the standard Bradford assay. SDS gel electrophoresis was performed using 4-20% polyacrylamide gel (BioRad). […] Signal densities of the protein bands were determined using ImageJ software (NIH) and normalized to the internal loading control (actin).
(§5) Each experiment was performed in triplicate unless otherwise stated in the figure legend. […] The effects of compound vs. vehicle treatment on protein levels (FIG. 10) were evaluated by one-way ANOVA with Dunnett's test for multiple comparisons.

Akt in PC-3 cells = experiment: Western blot of p-Akt/total Akt protein levels; format: cell-based, human; conditions: 48 h
Experimental: as §4, §5

PP2A in PC-3 cells = experiment: Western blot of p-PP2A/total PP2A protein levels; format: cell-based, human
Experimental: as §4, §5

[2] = tested on: PC-3 cells xenograft tumors; experiment: Mouse xenograft model, tumor growth inhibition; format: in vivo; conditions: PC-3 xenograft in nude mice, 30 mg/kg intraperitoneally three times per week
Experimental: An in-vivo study was performed to determine tumor growth inhibition by [D-Trp]CJ-15,208 in a mouse xenograft model. PC-3 cells were injected subcutaneously in both rear flanks of nude mice. Once tumors were established, mice were treated intraperitoneally three times per week with either vehicle (50% DMSO, 45% PEG 400, and 5% polyoxyethylene (20) sorbitan monooleate (Tween 80); 3 mice, 6 tumors) or [D-Trp]CJ-15,208 (30 mg/kg in vehicle; 2 mice, 3 tumors). Tumor volume was measured using calipers.

[3] = mice, dose of 60 mg/kg; cited from earlier work

SMILES: O=C1N[C@H](Cc2c[nH]c3ccccc23)C(=O)N[C@@H](Cc2ccccc2)C(=O)N2CCC[C@@H]2C(=O)N[C@H]1Cc1ccccc1 [[D-Trp]CJ-15,208, cyclo[Phe-D-Pro-Phe-D-Trp]] (cyclo(F[dP]F[dW]))
- IC50, cell growth (BPH-1 cells; 48 h): No effect
- IC50, cell growth (BPH-1 cells; 72 h): No effect
- effect on cell proliferation / cytotoxicity (BPH-1 cells; time not stated): No cytotoxicity was observed; also recorded: did not prevent cell proliferation
- IC50, cell growth (C4-2 cells; 48 h): No effect
- IC50, cell growth (C4-2 cells; 72 h): No effect
- effect on cell proliferation (C4-2 cells; time not stated): no effect; also recorded: did not prevent cell proliferation
- decrease of cellular c-Myc protein levels ([1]; 50 μM (FIG. 1E lanes 4 and 5)): 5 fold
- reduction of c-Myc protein levels ([1]; PC-3 cells, 10 μM, 48 h): approximately 50%
- cell population in G2 phase (PC-3 cells; 24 h): 42±4%
- mean cell distribution in S phase (PC-3 cells; 24 h): 26±4%
- mean cell population in G1 phase (PC-3 cells; 24 h): 32±1%
- cells accumulated in G2 phase compared to vehicle treated control cells (PC-3 cells; 24 h or 48 h): at least 8 fold
- cell population in G2 phase (PC-3 cells; 48 h): 58±4%
- mean cell distribution in S phase (PC-3 cells; 48 h): 12±0.6%
- mean cell population in G1 phase (PC-3 cells; 48 h): 31±6%
- total Erk protein levels (Erk in PC-3 cells; PC-3, 48 h): did not decrease significantly
- cellular levels of p-Erk (Erk in PC-3 cells; PC-3, increasing concentrations, 48 h): did not change significantly
- total Akt protein levels (Akt in PC-3 cells; PC-3, highest concentration (50 μM)): significant decrease
- cellular levels of p-Akt (Akt in PC-3 cells; PC-3, increasing concentrations): did not change significantly
- total PP2A protein levels (PP2A in PC-3 cells; PC-3, 48 h, vs. vehicle treated cells): not significantly different
- p-PP2A levels (PP2A in PC-3 cells; PC-3, concentrations ≥10 μM, 48 h): significantly reduced
- tumor growth compared to vehicle [2]: decrease in tumor growth
- toxicity [3]: no evidence of toxicity
